Reference: patent publication US20200060276A1, “THIAZOLE COMPOUND AND HERBICIDE” (OAT Agrio Co., Ltd., priority 2017, published 2020)

Experiments:
Type in all cases: in vivo
[1] = test system: Echinochloa crus-galli (L.) P. Beauv. var. formosensis Ohwi; assay: Test for Herbicidal Effect in Flooding Treatment (#1), ECHDG; conditions: flooding treatment at seeding, dose 2 kg/ha, visual observation on day 21
Method in brief: (§1)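 Sieved soil in cups was flooded and left 24 h before weed seeds were sown. Compounds in acetone, diluted with Tween 80-containing water, were dropped over the whole surface at 2 kg/ha. After 21 days in a glasshouse, growth inhibition was scored visually from 0 (<10%) to 5 (≥90% or complete withering).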

[2] = test system: Echinochloa crus-galli (L.) P. Beauv. var. formosensis Ohwi; assay: Test for Herbicidal Effect in Flooding Treatment (#2), ECHDG at 2-2.5 leaf stage; conditions: flooding treatment at 2-2.5 leaf stage, dose 0.2 kg/ha, visual observation on day 21
Method in brief: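 Scoring is a visual 0–5 scale of growth inhibition (0 below 10%, 5 at 90% or more or full withering), taken 21 days after treatment in a glasshouse. Dose was 0.2 kg/ha, applied as acetone/Tween 80 aqueous solution onto flooded soil once seedlings reached the 2–2.5 leaf stage.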

[3] = test system: Scirpus juncoides; assay: Test for Herbicidal Effect in Flooding Treatment (#1), SCIJU; conditions: flooding treatment at seeding, dose 2 kg/ha, visual observation on day 21
Method in brief: as §1

[4] = test system: Cyperus microiria; assay: Test for Herbicidal Effect in Flooding Treatment (#1), CYMIC; conditions: flooding treatment at seeding, dose 2 kg/ha, visual observation on day 21
Method: (#1) Test for Herbicidal Effect in Flooding Treatment: Styrol cups each having an opening diameter of 8 cm (about 52 cm^2) were respectively filled with soil (45 ml) which had been passed through a sieve (2 mm). Water (about 115 ml) was mixed with the soil such that the soil was flooded. After the soil stood still for 24 hours, Monochoria vaginalis, Echinochloa crus-galli (L.) P. Beauv. var. formosensis Ohwi, Cyperus difformis (umbrella sedge), and Scirpus juncoides were seeded. Each of the compounds of the present invention was dissolved in acetone, and the obtained product was then diluted with water containing Tween 80®. Each of the resultant chemical solutions was dropped on the entire surface of an associated one of treatment sections, so that each section was treated with 1 ml of the respective chemical solution (a dose of 2 kg/ha). After the treatment, the plants were grown in a glasshouse. On day 21, a survey was conducted on the herbicidal activity by visual observation, and evaluation was made according to the following criteria. 0: Growth inhibition effect is less than 10%. 1: Growth inhibition effect is equal to or greater than 10%, and less than 30%. 2; Growth inhibition effect is equal to or greater than 30%, and less than 50%. 3: Growth inhibition effect equal to or greater than 50%, and less than 70%. 4: Growth inhibition effect is equal to or greater than 70%, and less than 90%. 5: Growth inhibition effect is equal to or greater than 90%, or complete withering is achieved. ECHDG=Echinochloa crus-galli (L.) P. Beauv. var. formosensis Ohwi, MONVA=Monochoria vaginalis, SCIJU=Scirpus juncoides, CYMIC=Cyperus microiria.

Row | SMILES | ECHDG #1 herbicidal effect (growth inhibition grade) [1] | ECHDG (2-2.5L) #2 herbicidal effect (growth inhibition grade) [2] | SCIJU #1 herbicidal effect (growth inhibition grade) [3] | CYMIC #1 herbicidal effect (growth inhibition grade) [4]
1 | CCOc1ccc(CS(=O)(=O)c2ncc(Cl)s2)cc1F [Compound 1C-95] | 5 (Growth inhibition effect is equal to or greater than 90%, or complete withering is achieved) | 3 (Growth inhibition effect equal to or greater than 50%, and less than 70%) | 5 (Growth inhibition effect is equal to or greater than 90%, or complete withering is achieved) | 5 (Growth inhibition effect is equal to or greater than 90%, or complete withering is achieved)
2 | CCOc1ccc(CS(=O)(=O)c2ncc(Cl)s2)cc1Cl [Compound 1C-96] | 5 (Growth inhibition effect is equal to or greater than 90%, or complete withering is achieved) | 4 (Growth inhibition effect is equal to or greater than 70%, and less than 90%) | 5 (Growth inhibition effect is equal to or greater than 90%, or complete withering is achieved) | 5 (Growth inhibition effect is equal to or greater than 90%, or complete withering is achieved)
3 | CCOc1ccc(CS(=O)(=O)c2ncc(Cl)s2)cc1C [Compound 1C-97] | 5 (Growth inhibition effect is equal to or greater than 90%, or complete withering is achieved) | 3 (Growth inhibition effect equal to or greater than 50%, and less than 70%) | 5 (Growth inhibition effect is equal to or greater than 90%, or complete withering is achieved) | 5 (Growth inhibition effect is equal to or greater than 90%, or complete withering is achieved)
4 | CCOc1cc(Cl)c(CS(=O)(=O)c2ncc(Cl)s2)cc1Cl [Compound 1C-102] | 5 (Growth inhibition effect is equal to or greater than 90%, or complete withering is achieved) | 4 (Growth inhibition effect is equal to or greater than 70%, and less than 90%) | 5 (Growth inhibition effect is equal to or greater than 90%, or complete withering is achieved) | 5 (Growth inhibition effect is equal to or greater than 90%, or complete withering is achieved)
5 | CCOc1cc(F)c(CS(=O)(=O)c2ncc(Cl)s2)c(F)c1 [Compound 1C-103] | 5 (Growth inhibition effect is equal to or greater than 90%, or complete withering is achieved) | 5 (Growth inhibition effect is equal to or greater than 90%, or complete withering is achieved) | 5 (Growth inhibition effect is equal to or greater than 90%, or complete withering is achieved) | 5 (Growth inhibition effect is equal to or greater than 90%, or complete withering is achieved)
6 | CCOc1c(Cl)cc(CS(=O)(=O)c2ncc(Cl)s2)cc1Cl [Compound 1C-106] | 5 (Growth inhibition effect is equal to or greater than 90%, or complete withering is achieved) | 3 (Growth inhibition effect equal to or greater than 50%, and less than 70%) | 5 (Growth inhibition effect is equal to or greater than 90%, or complete withering is achieved) | 5 (Growth inhibition effect is equal to or greater than 90%, or complete withering is achieved)
7 | CCOc1c(C)cc(CS(=O)(=O)c2ncc(Cl)s2)cc1C [Compound 1C-107] | 5 (Growth inhibition effect is equal to or greater than 90%, or complete withering is achieved) | 4 (Growth inhibition effect is equal to or greater than 70%, and less than 90%) | 5 (Growth inhibition effect is equal to or greater than 90%, or complete withering is achieved) | 5 (Growth inhibition effect is equal to or greater than 90%, or complete withering is achieved)
8 | CCOc1c(F)c(F)c(CS(=O)(=O)c2ncc(Cl)s2)c(F)c1F [Compound 1C-108] | 5 (Growth inhibition effect is equal to or greater than 90%, or complete withering is achieved) | 5 (Growth inhibition effect is equal to or greater than 90%, or complete withering is achieved) | 5 (Growth inhibition effect is equal to or greater than 90%, or complete withering is achieved) | 5 (Growth inhibition effect is equal to or greater than 90%, or complete withering is achieved)
9 | CCCOc1cc(F)c(CS(=O)(=O)c2ncc(Cl)s2)c(F)c1 [Compound 1C-109] | 5 (Growth inhibition effect is equal to or greater than 90%, or complete withering is achieved) | 4 (Growth inhibition effect is equal to or greater than 70%, and less than 90%) | 5 (Growth inhibition effect is equal to or greater than 90%, or complete withering is achieved) | 5 (Growth inhibition effect is equal to or greater than 90%, or complete withering is achieved)
10 | CC(C)Oc1cc(F)c(CS(=O)(=O)c2ncc(Cl)s2)c(F)c1 [Compound 1C-111] | 5 (Growth inhibition effect is equal to or greater than 90%, or complete withering is achieved) | 5 (Growth inhibition effect is equal to or greater than 90%, or complete withering is achieved) | 5 (Growth inhibition effect is equal to or greater than 90%, or complete withering is achieved) | 5 (Growth inhibition effect is equal to or greater than 90%, or complete withering is achieved)
11 | CCCCOc1cc(F)c(CS(=O)(=O)c2ncc(Cl)s2)c(F)c1 [Compound 1C-112] | 5 (Growth inhibition effect is equal to or greater than 90%, or complete withering is achieved) | 3 (Growth inhibition effect equal to or greater than 50%, and less than 70%) | 5 (Growth inhibition effect is equal to or greater than 90%, or complete withering is achieved) | 5 (Growth inhibition effect is equal to or greater than 90%, or complete withering is achieved)
12 | CCCCOc1cc(Cl)c(CS(=O)(=O)c2ncc(Cl)s2)c(Cl)c1 [Compound 1C-113] | 5 (Growth inhibition effect is equal to or greater than 90%, or complete withering is achieved) | 5 (Growth inhibition effect is equal to or greater than 90%, or complete withering is achieved) | 5 (Growth inhibition effect is equal to or greater than 90%, or complete withering is achieved) | 5 (Growth inhibition effect is equal to or greater than 90%, or complete withering is achieved)
